US9957484B2, “Methods for promoting cell reprogramming” (Sanford-Burnham Medical Research Institute, priority 2011, dated 2018)
One block for each compound: values may come before it.

Assays:
[1] = system: MEFs during reprogramming; assay: Alkaline phosphatase (AP)+ colony formation during reprogramming; type: cell-based, mouse; conditions: molecule applied during reprogramming
4F-infected MEFs [2] = assay: Cell cycle analysis, PI staining and flow cytometry; type: cell-based, mouse; conditions: for cell cycle progression: various concentrations, 48 hr
Experimental: FIG. 24A is a series of images of DNA analysis by flow cytometry. 4F-infected MEFs were treated with different concentrations of B6 at day 3 post-infection. Cells were harvested after 48 hr of drug treatment, subjected to PI staining and analyzed for DNA content by flow cytometry.
FIG. 24B is a series of images of DNA analysis by flow cytometry. […] The experimental procedure was as in FIG. 24A.
Cell cycle analysis: MEFs or 4F-infected MEFs were treated with inhibitors for two days and then harvested and trypsinized before fixing in 75% ethanol overnight. Cells were centrifuged at 1000 rpm for 5 min, washed once with PBS, and treated with PI staining solution for at least 30 min at room temperature before flow cytometry analysis. ˜20000 events per sample were collected per analysis and cell cycle data was modeled using ModFit™.

GSK3β = assay: Western blotting of phospho- and total GSK3β; type: cell-based, mouse; conditions: 4F-infected MEFs
Experimental: 4F-infected MEFs were treated with different doses of B6 inhibitor starting at day 3 post-infection for 48 hrs before being harvested for western blotting analysis.
The experiment was the same as FIG. 5C. Actin served as the loading control.
4F-infected MEFs were treated with 1 μM each of Akt inhibitor (Akt X) and B6.
Membranes were blocked with 5% milk in TBST for at least 1 hr at room temp or overnight at 4° C.

mES cells = assay: mES cell self-renewal and differentiation in LIF+ and LIF− conditions; type: cell-based, mouse; conditions: 0.5 μM and 1 μM, 4 days
From the text: Cells were harvested for RNA extraction and RT-qPCR of indicated mES self-renewal genes.
LIF withdrawal in both B6-treated and DMSO control cells promoted mES cell differentiation, as indicated by loss of colonies, based on morphology and AP staining (data not shown).

[3] = system: 4F-transduced Oct4-GFP MEFs; assay: Kinase inhibitor treatment of 4F-transduced Oct4-GFP MEFs, Oct4-GFP+ colony count (reprogramming efficiency); type: cell-based, mouse; conditions: for reprogramming, Oct4-GFP+ colonies, dose/response: 0.5 μM, drug from day 3, colonies at day 13; for reprogramming, Oct4-GFP+ colonies: secondary screen; for iPSC generation in non-permissive conditions: 4F expression too low to reprogram vehicle-treated MEFs, GFP+ colonies at day 12-13; for iPSC generation when p53 is silenced by shRNA: 4F plus p53 shRNA, inhibitor from day 3, GFP+ colonies at day 12
Experimental: MEFs were cultured in DMEM (Invitrogen, 11995-065) with 10% FBS (Invitrogen) plus glutamine and NEAA. Only MEFs at passage of 0 to 4 were used for reprogramming. pMX-Oct4, Sox2, Klf4 and cMyc were purchased from Addgene. […] Viruses were harvested and combined 2 days later. For reprogramming, MEFs were seeded in 12-well plates and transduced with 4F virus the next day with 4 ug/ml Polybrene. One day later, the medium was changed to fresh MEF medium, and 3 days later it was changed to mES culture medium supplemented with LIF (Millipore, ESG1107). GFP+ colonies were picked at day 14 post-transduction, and expanded clones were cultured in DMEM with 15% FBS (Hyclone) plus LIF, thioglycerol, glutamine and NEAA. Irradiated CF1 MEFs served as feeder layers to culture mES cells and derived iPS clones.
All compounds are well-characterized protein kinase inhibitors. Compounds were diluted to 2 mM in 96-well plates. 4F-transduced cells were seeded into gelatin coated plates (4000 cells/well). Inhibitors were added every other day until day 13. Cells were then fixed with 4% paraformaldehyde for 20 min at room temperature and number of Oct4-GFP+ colonies was directly counted under a microscope. Cells were then stained with Vector red alkaline phosphatase substrate kit I™ (Vector laboratories, SK5100).
To define signaling mechanisms underlying reprogramming, a double-blind screen of 244 well-characterized cell-permeable protein kinase inhibitors was undertook to identify kinases that enhance or inhibit the process. Mouse embryonic fibroblasts from a transgenic line in which GFP expression is driven by the endogenous Oct4 promoter were chosen as the starting material for a reporter cell line of somatic cell reprogramming. Fully reprogrammed cells switch on endogenous Oct4 expression, making resultant iPS colonies GFP-positive and enabling quantification of reprogramming efficiency. To minimize well-to-well variation, MEFs were first transduced with 4F factors in bulk (FIG. 9A) and then reseeded at 3000 cells/well into gelatin-coated 96-well plates before inhibitor treatment. Starting at day 3 post-transduction, inhibitors were added at a final concentration of 2 μM and media were refreshed every other day with mES culture medium plus inhibitor. At day 13 post-transduction, plates were fixed in 4% paraformaldehyde and GFP-positive colonies were directly quantified microscopically.
Two columns of wells from each plate (columns 1 and 12) were treated with DMSO (vehicle) only and served as controls.

Pdk1, Src, Pten and p85α = assay: RT-qPCR of genes upstream of Akt; type: cell-based, mouse; conditions: MEFs transduced with 4F for three days, then 1 μM for two days
Experimental: FIG. 22, is a graph plotting relative mRNA levels in MEFs. […] MEFs were first transduced with 4F for three days and then treated for another two days with DMSO or 1 μM B6. Total RNAs were harvested and analyzed for indicated factors, which reportedly function upstream of Akt.
(§1) mRNA quantitative PCR: Total RNAs were extracted using Trizol (Invitrogen). After extraction, 1 ug total RNA was used for RT using Superscript II™ (Invitrogen). Quantitative PCR was performed using a Roche LightCycler480™ II and the Sybr green mixture from Abgene (Ab-4166). Other primers were previously described (Takahashi et al. 2006 Cell 126:663-76).

Aurora A kinase = assay: Western blotting of Aurora A kinase protein; type: cell-based, mouse; conditions: wild type and 4F-infected MEFs (B6 1 μM, 2 days); 4F-infected MEFs (MLN8237, 48 hrs)
Experimental: FIGS. 13A-13h are a series of graphical representations depicting Aurora A kinase inhibition by B6 promoting Akt mediated inactivation of GSK3β. FIG. 13A is a western blot showing B6 treatment increases aurora A kinase protein levels. Both 4F-infected (day 3) and mock MEFs were treated with 1 μM B6 for 2 days and cells were harvested for western blotting of Aurora A kinase. Actin served as loading control.
Cells were harvested 48 hrs after drug treatment for western blotting analysis of AurkA protein. Actin serves as loading control.
Western blotting: Total cell lysates were prepared by incubating cells in MPER buffer (PIERCE, 78503) on ice for 20 min, and then cleared by centrifugation at 13,000 rpm for 10 min. An equal volume of lysates was loaded onto 10% SDS-PAGE gels, and proteins were transferred to PVDF membranes (Bio-Rad, 1620177) using the semi-dry system (Bio-Rad). Membranes were blocked with 5% milk in TBST for at least 1 hr at room temp or overnight at 4° C. Antibodies used include: anti-mNanog (R&D, AF2729), anti-h/mSSEA1 (R&D, MAB2156), anti-Actin (Thermo, MS1295P0), anti-AFP (Abcam, ab7751), anti-Beta III tubulin (R&D systems, MAB1368), and anti-alpha actinin (Sigma, A7811), anti-mAurkA (Bethyl lab, A300-072A), anti-hAurkA (Bethyl lab, A300-071A), total-GSK3β (Cell signaling technology, 9315S), phospho-GSK3β (Cell Signaling Technology, 9323S).

Aurora A kinase mRNA = assay: RT-qPCR of Aurora A kinase mRNA; type: cell-based, mouse; conditions: 4F-infected MEFs, 1 μM, 2 days
Experimental: MEFs were infected with 4F for 3 days and treated under mock conditions or with DMSO or 1 μM B6 for 2 days prior to RT-qPCR analysis of total RNA.
as §1

[4] = system: OSKM-transduced Oct4-EGFP MEFs; assay: OSKM-induced reprogramming with small molecules, GFP+ colonies; type: cell-based, mouse; conditions: treated four days after OSKM transduction for at least 10 days, vs DMSO
Experimental: All 17 molecules are tested by examining alkaline phosphatase (AP)+ colony formation during reprogramming while these molecules were applied. […] To evaluate their effect on induction of mature GFP+ iPS cells, OSKM-transduced Oct4-EGFP MEFs are treated four days after transduction with each of these factors separately.
Oct4-EGFP MEFs are transduced with OSKM and four days later treated with individual small molecules for at least 10 days. GFP+ colonies are identified. Error bars represent standard deviations of three independent experiments. *p value<0.05; **p value<0.005.

Nanog, Tet1 and Eras = assay: RT-qPCR of mES-specific genes in 4F-transduced MEFs; type: cell-based, mouse; conditions: day 14 post transduction
Experimental: Data is derived from analysis of three independent wells. FIG. 23B is a histogram of relative mRNA level. […] Cells were harvested at day 14 post 4F transduction. […] Shown are data derived from three independent wells.
as §1

4F-infected MEFs [5] = assay: Cell proliferation assay (Celltiter 96 aqueous), 4F-infected MEFs; type: cell-based, mouse; conditions: 4F-transduced MEFs, 0.5 μM
Experimental: (§2) MEFs were treated with drugs at 2 μM and proliferation was assayed by using the Celltiter 96™ aqueous method (Promega). Y-axis represents the absorbance at 490 nm to detect formazan, which is converted from MTS tetrazolium by living cells. A higher reading indicates increased cell number. […] Oct4-GFP+ colonies were quantified at day 13.
(§3) FIG. 16A is a graph plotting relative cell viability. 4F-infected MEFs were seeded in 96-well plates and 0.5 μM of three inhibitors was added at day 3 after transduction (Day 0 in dataset). Proliferation of cells was analyzed every other day using the Celltiter 96™ aqueous method (Promega). FIG. 16B is a graph plotting relative cell viability. […] The experimental procedure is the same as in FIG. 16A.
(§4) Cell proliferation assay: 3000 MEFs were seeded in each well in 96-well plates and transduced with 4F virus for three days. Cells were then treated with inhibitors at 0.5 μM and harvested every other day. Cells were incubated with mES medium containing Celltiter 96 Aqueous™ one solution (Promega, G3580) for 1 hr in tissue culture incubator. Absorbance at 490 nm was then measured for each well using a plate reader, and data was used to generate relative proliferation curves using the signal from day 3 post-transduction as a reference.

uninfected MEFs = assay: Cell proliferation assay (Celltiter 96 aqueous), uninfected MEFs; type: cell-based, mouse; conditions: 0.5 μM
Experimental: as §2, §3, §4

Cdk7/H/MAT1 = Cdk7/H/MAT1 (Homo sapiens, UniProt P50613); conditions: read-out: Potential Targets: Cdk7/H/MAT1, IC50; cited from earlier work
Chain of Cdk7/H/MAT1 (P50613 whole entry, species assumed): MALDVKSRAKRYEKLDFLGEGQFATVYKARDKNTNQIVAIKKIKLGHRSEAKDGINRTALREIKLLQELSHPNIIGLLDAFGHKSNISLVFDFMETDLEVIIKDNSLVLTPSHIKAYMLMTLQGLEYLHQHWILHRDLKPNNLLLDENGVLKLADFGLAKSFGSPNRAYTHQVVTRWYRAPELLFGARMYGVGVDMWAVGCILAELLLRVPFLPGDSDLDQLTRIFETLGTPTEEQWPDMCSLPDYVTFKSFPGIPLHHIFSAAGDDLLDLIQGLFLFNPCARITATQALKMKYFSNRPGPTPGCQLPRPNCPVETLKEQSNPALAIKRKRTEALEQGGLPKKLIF
Chain of Cdk7/H/MAT1 (P51946 whole entry partner, species assumed): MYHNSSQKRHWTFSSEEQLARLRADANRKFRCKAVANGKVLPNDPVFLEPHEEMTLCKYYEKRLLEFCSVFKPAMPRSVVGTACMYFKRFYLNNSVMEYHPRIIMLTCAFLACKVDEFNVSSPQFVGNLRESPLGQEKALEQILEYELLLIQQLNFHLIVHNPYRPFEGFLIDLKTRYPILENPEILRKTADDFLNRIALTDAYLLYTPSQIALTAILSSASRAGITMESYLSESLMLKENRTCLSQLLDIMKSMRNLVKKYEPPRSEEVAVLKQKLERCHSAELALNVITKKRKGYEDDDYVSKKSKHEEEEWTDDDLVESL
Chain of Cdk7/H/MAT1 (P51948 whole entry partner, species assumed): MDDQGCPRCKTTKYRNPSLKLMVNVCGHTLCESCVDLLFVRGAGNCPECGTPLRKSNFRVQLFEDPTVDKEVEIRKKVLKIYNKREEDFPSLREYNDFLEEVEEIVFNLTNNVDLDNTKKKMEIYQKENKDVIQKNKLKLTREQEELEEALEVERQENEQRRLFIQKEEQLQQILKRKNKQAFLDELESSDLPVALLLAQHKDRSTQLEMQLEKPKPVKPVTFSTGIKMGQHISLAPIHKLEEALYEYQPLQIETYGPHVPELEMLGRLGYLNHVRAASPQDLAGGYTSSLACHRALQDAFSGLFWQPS

Cdk2/E = Cdk2/E (Homo sapiens, UniProt P24941); conditions: read-out: Potential Targets: Cdk2/E, IC50; cited from earlier work
Cdk3/E = Cdk3/E (Homo sapiens, UniProt Q00526); conditions: read-out: Potential Targets: Cdk3/E, IC50; cited from earlier work
Cdk5/p35 = Cdk5/p35 (Homo sapiens, UniProt Q00535); conditions: read-out: Potential Targets: Cdk5/p35, IC50; cited from earlier work
Chain of Cdk5/p35 (Q00535 whole entry, species assumed): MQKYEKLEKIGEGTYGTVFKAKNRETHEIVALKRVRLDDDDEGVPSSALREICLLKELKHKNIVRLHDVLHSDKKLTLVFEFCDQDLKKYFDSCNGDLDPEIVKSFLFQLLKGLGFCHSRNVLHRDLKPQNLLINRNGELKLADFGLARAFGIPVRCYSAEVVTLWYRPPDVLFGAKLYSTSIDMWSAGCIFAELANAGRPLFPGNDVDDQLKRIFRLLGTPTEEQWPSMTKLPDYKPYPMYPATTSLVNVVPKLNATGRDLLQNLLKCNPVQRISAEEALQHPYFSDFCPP
Chain of Cdk5/p35 (Q15078 whole entry partner, species assumed): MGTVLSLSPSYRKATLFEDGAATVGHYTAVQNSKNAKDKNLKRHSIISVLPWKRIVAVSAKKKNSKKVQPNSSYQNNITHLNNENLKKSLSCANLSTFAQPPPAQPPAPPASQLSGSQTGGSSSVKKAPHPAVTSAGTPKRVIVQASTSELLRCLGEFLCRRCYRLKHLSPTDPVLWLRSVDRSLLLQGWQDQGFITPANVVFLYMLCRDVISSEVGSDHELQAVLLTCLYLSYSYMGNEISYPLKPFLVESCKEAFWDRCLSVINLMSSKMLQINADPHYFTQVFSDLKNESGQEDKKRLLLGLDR

Cdk1/B = Cdk1/B (Homo sapiens, UniProt P06493); conditions: read-out: Potential Targets: Cdk1/B, IC50; cited from earlier work
Chain of Cdk1/B (P06493 whole entry, species assumed): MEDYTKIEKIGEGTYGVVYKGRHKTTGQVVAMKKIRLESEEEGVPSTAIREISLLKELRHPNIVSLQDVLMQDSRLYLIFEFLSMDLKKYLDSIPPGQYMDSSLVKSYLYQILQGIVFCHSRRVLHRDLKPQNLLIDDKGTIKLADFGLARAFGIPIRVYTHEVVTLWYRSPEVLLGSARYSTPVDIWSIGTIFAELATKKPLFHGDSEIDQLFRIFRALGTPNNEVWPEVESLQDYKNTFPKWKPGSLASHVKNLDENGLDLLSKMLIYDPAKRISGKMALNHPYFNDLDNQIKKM
Chain of Cdk1/B (P14635 whole entry partner, species assumed): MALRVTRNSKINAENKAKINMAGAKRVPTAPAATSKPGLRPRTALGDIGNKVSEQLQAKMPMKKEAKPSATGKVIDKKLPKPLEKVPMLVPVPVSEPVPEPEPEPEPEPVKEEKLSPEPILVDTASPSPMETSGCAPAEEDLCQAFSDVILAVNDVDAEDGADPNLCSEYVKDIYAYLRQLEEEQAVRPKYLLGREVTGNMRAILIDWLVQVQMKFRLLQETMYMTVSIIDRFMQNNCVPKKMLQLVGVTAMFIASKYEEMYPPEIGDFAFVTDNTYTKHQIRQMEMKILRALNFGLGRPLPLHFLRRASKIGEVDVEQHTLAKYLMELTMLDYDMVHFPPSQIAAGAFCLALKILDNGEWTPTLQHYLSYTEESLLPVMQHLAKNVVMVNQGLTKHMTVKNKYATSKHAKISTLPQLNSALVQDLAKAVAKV

[6] = 12-well plates, 2 μM, drug from day 3, colonies at day 13, vs DMSO

Compound: COC(=O)[C@H]1[C@H]2C[C@H]3c4[nH]c5ccccc5c4CCN3C[C@@H]2CC[C@@H]1O.Cl [Corynanthine, Corynanthine hydrochloride]
effect on AP+ colony formation [1]: not showing adverse effect on AP+ colony formation

reprogramming, Oct4-GFP+ colonies, dose/response [3]: potent enhancers
AurkA mRNA levels (Aurora A kinase mRNA): not significantly altered
Compound: O=C(Nc1cccc(Nc2nccc(Nc3cccc(C(F)(F)F)c3)n2)c1)C1CC1 [BIM-0086660]
cell cycle progression (4F-infected MEFs [2]): little change in cell cycle progression
GSK3β total protein levels (GSK3β; 48 hrs): unchanged
phospho-GSK3β (GSK3β; different doses from day 3 post-infection for 48 hrs): significant increase in phospho-GSK3β
Oct4 expression in mES cells (mES cells): very small increase
mES self-renewal or differentiation (mES cells; LIF+ and LIF−): a significant effect on either mES self-renewal (in the presence of LIF) or differentiation (following LIF withdrawal) was not seen
reprogramming, Oct4-GFP+ colonies ([3]; 1 μM, vs DMSO): enhanced reprogramming more robustly at 1 μM than at 2 μM
expression levels of genes upstream of Akt (Pdk1, Src, Pten, p85α) (Pdk1, Src, Pten and p85α): significant changes were not observed
AurkA protein levels (Aurora A kinase): increased AurkA protein levels relative to untreated cells

Compound: 4-hydroxytamoxifen
effect on AP+ colony formation [1]: not showing adverse effect on AP+ colony formation

Compound: COc1ccc2cc(CCC(C)=O)ccc2c1 [Nabumetone]
effect on AP+ colony formation [1]: not showing adverse effect on AP+ colony formation
increase in number of reprogrammed colonies [4]: at least 2.8 fold

Compound: Cc1cccc(-c2[nH]c(C(C)(C)C)nc2-c2ccc3c(c2)OCO3)n1 [BIM-0086716]
reprogramming, Oct4-GFP+ colonies [3, 6]: consistently and significantly enhanced reprogramming

Compound: COc1cc(Nc2ncc3c(n2)-c2ccc(Cl)cc2C(c2c(F)cccc2OC)=NC3)ccc1C(=O)O [MLN8237]
cell cycle (4F-infected MEFs [2]; 10 nM): did not alter the cell cycle
number of cells in G2 (4F-infected MEFs [2]; 100 nM): increased the number of cells in G2
cell cycle progression (4F-infected MEFs [2]): little change in cell cycle progression
enhancement of reprogramming ([3]; 10 nM, from day 3 for 10 days): approximately 4 fold
number of GFP+ colonies ([3]; 100 nM): significant increase in the number of GFP+ colonies
AurkA protein levels (Aurora A kinase): Increased AurkA protein levels
mES-specific gene expression (Nanog, Tet1 and Eras): increases in mES-specific gene expression

reprogramming, Oct4-GFP+ colonies, dose/response [3]: potent enhancers
Compound: O=[N+]([O-])c1ccc(CNc2nc(NCc3cccc(C(F)(F)F)c3)nc3nc[nH]c23)cc1 [BIM-0207164]
proliferation (4F-infected MEFs [5]): did not significantly promote proliferation
proliferation (uninfected MEFs): did not significantly promote proliferation
iPSC generation in non-permissive conditions [3]: enhanced iPSC generation even in non-permissive conditions
iPSC generation when p53 is silenced by shRNA [3]: equivalent in inhibitor-treated and -untreated conditions
reprogramming, Oct4-GFP+ colonies [3, 6]: consistently and significantly enhanced reprogramming

Compound: O=C(NCCN1CCOCC1)c1ccc(Cl)cc1 [Moclobemide]
effect on AP+ colony formation [1]: not showing adverse effect on AP+ colony formation

reprogramming ([3]; 1 μM, triplicate wells): compromises reprogramming
Compound: CCN(CC)CCCCN1c2ccccc2Oc2ccc(Cl)cc21 [Akt X]
GSK3β phosphorylation (GSK3β; 1 μM each of Akt X and B6): diminished

Compound: CC(C)c1nn(-c2c(Cl)cccc2Cl)c2nc(Cc3ccc(OCCO)cc3)[nH]c(=O)c12 [BIM-0086744]
IC50 (Cdk7/H/MAT1): 9 nM
IC50 (Cdk2/E): 9 nM
IC50 (Cdk3/E): 10 nM
IC50 (Cdk5/p35): 71 nM
IC50 (Cdk1/B): 48 nM

Compound: O=S(=O)(c1c(O)c(Cl)cc(Cl)c1Cl)c1c(O)c(Cl)cc(Cl)c1Cl [BIM-0207174]
proliferation (4F-infected MEFs [5]): did not significantly promote proliferation
proliferation (uninfected MEFs): did not significantly promote proliferation
reprogramming, Oct4-GFP+ colonies, dose/response [3]: potent enhancers
iPSC generation in non-permissive conditions [3]: enhanced iPSC generation even in non-permissive conditions
iPSC generation when p53 is silenced by shRNA [3]: equivalent in inhibitor-treated and -untreated conditions
reprogramming, Oct4-GFP+ colonies [3, 6]: consistently and significantly enhanced reprogramming
